According to patent publication US20220289685A1, “ANTIMALARIAL HEXAHYDROPYRIMIDINE ANALOGUES” (UCB BIOPHARMA SRL, priority 2019, published 2022):
Where a name gives a salt, the structure may show the parent alone.

tested on: Plasmodium falciparum 3D7 strain; test: P. falciparum 3D7 asexual blood stage assay (SYBR green readout); type: cell-based; settings: Plasmodium falciparum, 3D7, Erythrocyte, 72 h
In short: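 P. falciparum 3D7 in A+ erythrocytes (5% haematocrit, 0.5% parasitaemia) exposed 72 h at 37 °C under 1% O2/3% CO2 to 20-point 1.5-fold titrations, 50,000–15 nM in 0.5% DMSO. SYBR green lysis overnight, fluorescence 485/528 nm; normalized to mefloquine and DMSO, EC50 from biphasic two-site fit.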

Compound | IC50
C[C@@H]1C[C@H](N2C(=N)N[C@](C)(c3cccc(NC(=O)c4cc(C(F)(F)F)ccc4F)c3Cl)CC2=O)CCO1 (relative stereo) [Example 83, N-(2-Chloro-3-{(4S)-2-imino-4-methyl-1-[(2R*,4R*)-2-methyl-tetrahydropyran-4-yl]-6-oxo-hexahydropyrimidin-4-yl}phenyl)-2-fluoro-5-(trifluoromethyl)-benzamide trifluoroacetic acid salt] | 18 nM
Cc1cncc(C(=O)Nc2cccc([C@]3(C)CC(=O)N([C@@H]4CCO[C@H](C)C4)C(=N)N3)c2Cl)n1 (relative stereo) [Example 66, N-(2-Chloro-3-{(4S)-2-imino-4-methyl-1-[(2R*,4R*)-2-methyl-tetrahydropyran-4-yl]-6-oxo-hexahydropyrimidin-4-yl}phenyl)-6-methylpyrazine-2-carboxamide hydrochloride] | 92 nM
C[C@@H]1C[C@H](N2C(=N)N[C@](C)(c3cccc(NC(=O)c4ccc(C(F)(F)F)cc4)c3Cl)CC2=O)CCO1 (relative stereo) [Example 37, N-(2-Chloro-3-{(4S)-2-imino-4-methyl-1-[(2R*,4R*)-2-methyl-tetrahydropyran-4-yl]-6-oxo-hexahydropyrimidin-4-yl}phenyl)-4-(trifluoromethyl)benzamide trifluoroacetic acid salt] | 207 nM
COc1cccnc1C(=O)Nc1cccc([C@]2(C)CC(=O)N([C@@H]3CCO[C@H](C)C3)C(=N)N2)c1Cl (relative stereo) [Example 50, N-(2-Chloro-3-{(4S)-2-imino-4-methyl-1-[(2R*,4R*)-2-methyl-tetrahydropyran-4-yl]-6-oxo-hexahydropyrimidin-4-yl}phenyl)-3-methoxypyridine-2-carboxamide trifluoroacetic acid salt] | 56 nM
C[C@@]1(c2cccc(NC(=O)c3ccc(Cl)cn3)c2Cl)CC(=O)N(C2CCOCC2)C(=N)N1 [Example 2, 5-Chloro-N-{2-chloro-3-[(4S)-2-imino-4-methyl-6-oxo-1-(tetrahydropyran-4-yl)hexahydro-pyrimidin-4-yl]phenyl}pyridine-2-carboxamide trifluoroacetic acid salt] | 1120 nM
C[C@@H]1C[C@H](N2C(=N)N[C@](C)(c3cccc(NC(=O)c4cc(Cl)cc(C#N)c4)c3Cl)CC2=O)CCO1 (relative stereo) [Example 77, 3-Chloro-N-(2-chloro-3-{(4S)-2-imino-4-methyl-1-[(2R*,4R*)-2-methyltetrahydropyran-4-yl]-6-oxo-hexahydropyrimidin-4-yl}phenyl)-5-cyanobenzamide hydrochloride] | 7 nM
Cc1nccc(C(F)(F)F)c1C(=O)Nc1cccc([C@]2(C)CC(=O)N([C@@H]3CCO[C@H](C)C3)C(=N)N2)c1Cl (relative stereo) [Example 111, N-(2-Chloro-3-{(4S)-2-imino-4-methyl-1-[(2R*,4R*)-2-methyl-tetrahydropyran-4-yl]-6-oxo-hexahydropyrimidin-4-yl}phenyl)-2-methyl-4-(trifluoromethyl)-pyridine-3-carboxamide hydrochloride] | 418 nM
C[C@@H]1C[C@H](N2C(=N)N[C@](C)(c3cccc(NC(=O)c4ncccc4C(F)(F)F)c3Cl)CC2=O)CCO1 (relative stereo) [Example 49, N-(2-Chloro-3-{(4S)-2-imino-4-methyl-1-[(2R*,4R*)-2-methyl-tetrahydropyran-4-yl]-6-oxo-hexahydropyrimidin-4-yl]phenyl)-3-(trifluoromethyl)pyridine-2-carboxamide trifluoroacetic acid salt] | 17 nM
C[C@@H]1C[C@H](N2C(=N)N[C@](C)(c3cccc(NC(=O)c4cccc(Cl)c4F)c3Cl)CC2=O)CCO1 (relative stereo) [Example 97, 3-Chloro-N-(2-chloro-3-{(4S)-2-imino-4-methyl-1-[(2R* ,4R*)-2-methyltetrahydropyran-4-yl]-6-oxo-hexahydropyrimidin-4-yl]phenyl)-2-fluorobenzamide hydrochloride] | 21 nM
C[C@@H]1C[C@H](N2C(=N)N[C@](C)(c3cccc(NC(=O)c4cccc(-n5ccnc5)c4)c3Cl)CC2=O)CCO1 (relative stereo) [Example 105, N-(2-Chloro-3-{(4S)-2-imino-4-methyl-1-[(2R*,4R*)-2-methyl-tetrahydropyran-4-yl]-6-oxo-hexahydropyrimidin-4-yl]phenyl)-3-(imidazol-1-yl)benzamide hydrochloride] | 44 nM
COc1ccc2ccccc2c1C(=O)Nc1cccc([C@]2(C)CC(=O)N([C@@H]3CCO[C@H](C)C3)C(=N)N2)c1Cl (relative stereo) [Example 79, N-(2-Chloro-3-{(4S)-2-imino-4-methyl-1-[(2R*,4R*)-2-methyl-tetrahydropyran-4-yl]-6-oxo-hexahydropyrimidin-4-yl]phenyl)-2-methoxynaphthalene-1-carboxamide trifluoroacetic acid salt] | 61 nM
C[C@@H]1C[C@H](N2C(=N)N[C@](C)(c3cccc(NC(=O)c4ccccc4Cl)c3Cl)CC2=O)CCO1 (relative stereo) [Example 12, 2-Chloro-N-(2-chloro-3-{(4S)-2-imino-4-methyl-1-[(2R*,4R*)-2-methyltetrahydropyran-4-yl]-6-oxo-hexahydropyrimidin-4-yl}phenyl)-benzamide hydrochloride] | 23 nM
C[C@@H]1C[C@H](N2C(=N)N[C@](C)(c3cccc(NC(=O)c4cncc(C(F)(F)F)c4)c3Cl)CC2=O)CCO1 (relative stereo) [Example 70, N-(2-Chloro-3-{(4S)-2-imino-4-methyl-1-[(2R*,4R*)-2-methyl-tetrahydropyran-4-yl]-6-oxo-hexahydropyrimidin-4-yl}phenyl)-5-(trifluoromethyl)pyridine-3-carboxamide hydrochloride] | 36 nM
C[C@@H]1C[C@H](N2C(=N)N[C@](C)(c3cccc(NC(=O)c4ccc(Cl)cc4)c3Cl)CC2=O)CCO1 (relative stereo) [Example 9, 4-Chloro-N-(2-chloro-3-{(4S)-2-imino-4-methyl-1-[(2R*,4R*)-2-methyltetrahydropyran-4-yl]-6-oxo-hexahydropyrimidin-4-yl}phenyl)-benzamide hydrochloride] | 52 nM
C[C@@H]1C[C@H](N2C(=N)N[C@](C)(c3cccc(NC(=O)c4cc(F)cc(F)c4)c3Cl)CC2=O)CCO1 (relative stereo) [Example 42, N-(2-Chloro-3-{(4S)-2-imino-4-methyl-1-[(2R*,4R*)-2-methyl-tetrahydropyran-4-yl]-6-oxo-hexahydropyrimidin-4-yl]phenyl)-3,5-difluorobenzamide trifluoroacetic acid salt] | 42 nM
Cc1cc(Cl)cc(C(=O)Nc2cccc([C@]3(C)CC(=O)N([C@@H]4CCO[C@H](C)C4)C(=N)N3)c2Cl)c1 (relative stereo) [Example 22, 3-Chloro-N-(2-chloro-3-{(4S)-2-imino-4-methyl-1-[(2R*,4R*)-2-methyltetrahydropyran-4-yl]-6-oxo-hexahydropyrimidin-4-yl}phenyl)-5-methylbenzamide hydrochloride] | 9 nM
C[C@@H]1C[C@H](N2C(=N)N[C@](C)(c3cccc(NC(=O)c4ccc(F)cc4F)c3Cl)CC2=O)CCO1 (relative stereo) [Example 4, N-(2-Chloro-3-{(4S)-2-imino-4-methyl-1-[(2R*,4R*)-2-methyl-tetrahydropyran-4-yl]-6-oxo-hexahydropyrimidin-4-yl]phenyl)-2,4-difluorobenzamide hydrochloride] | 23 nM
C[C@@H]1C[C@H](N2C(=N)N[C@](C)(c3cccc(NC(=O)c4ccc(C5CC5)nc4)c3Cl)CC2=O)CCO1 (relative stereo) [Example 53, N-(2-Chloro-3-{(4S)-2-imino-4-methyl-1-[(2R*,4R*)-2-methyl-tetrahydropyran-4-yl]-6-oxo-hexahydropyrimidin-4-yl}phenyl)-6-cyclopropylpyridine-3-carboxamide hydrochloride] | 630 nM
C[C@@]1(c2cccc(NC(=O)c3ccccc3)c2Cl)CC(=O)N(C2CCOCC2)C(=N)N1 [Example 1, N-{2-Chloro-3-[(4S)-2-imino-4-methyl-6-oxo-1-(tetrahydropyran-4-yl)hexahydropyrimidin-4-yl]-phenyl]benzamide trifluoroacetic acid salt] | 227 nM
C[C@@H]1C[C@H](N2C(=N)N[C@](C)(c3cccc(NC(=O)c4cccc(-n5cccn5)c4)c3Cl)CC2=O)CCO1 (relative stereo) [Example 90, N-(2-Chloro-3-{(4S)-2-imino-4-methyl-1-[(2R*,4R*)-2-methyl-tetrahydropyran-4-yl]-6-oxo-hexahydropyrimidin-4-yl}phenyl)-3-(pyrazol-1-yl)benzamide trifluoroacetic acid salt] | 23 nM

same assay, conditions: Plasmodium falciparum, Erythrocyte; P. falciparum 3D7 in human erythrocytes, 72 h incubation, SYBR green fluorescence; read-out: IC50

IC50 | Compound
18 nM | COc1ccc(F)cc1C(=O)Nc1cccc([C@]2(C)CC(=O)N([C@@H]3CCO[C@H](C)C3)C(=N)N2)c1Cl (relative stereo) [Example 87, N-(2-Chloro-3-{(4S)-2-imino-4-methyl-1-[(2,R*,4R*)-2-methyl-tetrahydropyran-4-yl]-6-oxo-hexahydropyrimidin-4-yl}phenyl)-5-fluoro-2-methoxybenzamide trifluoroacetic acid salt]
10 nM | C[C@@H]1C[C@H](N2C(=N)N[C@](C)(c3cccc(NC(=O)c4cccc5c4OCO5)c3Cl)CC2=O)CCO1 (relative stereo) [Example 86, N-(2-Chloro-3-{(4S)-2-imino-4-methyl-1-[(2R*,4R*)-2-methyl-tetrahydropyran-4-yl]-6-oxo-hexahydropyrimidin-4-yl]phenyl)-1,3-benzodioxole-4-carboxamide trifluoroacetic acid salt]
